Source: patent publication US20240218346A1, “PHOSPHOKETOLASE VARIANTS AND METHODS OF USE” (Genomatica, Inc., priority 2021, published 2024)
Substitutions are numbered along the chain they refer to. Numbers in names are those of the source. Each block holds one molecule with its values, some of them ahead of it.

How the values were obtained:
[1] = molecular target: T1, Bifidobacterium adolescentis fructose-6-phosphate phosphoketolase (H2), wild type, SEQ ID NO: 1 (Bifidobacterium adolescentis, UniProt A1A185); assay: Kinetics, Hydroxymate based colorimetric assay for FPK activity (F6P); type: biochemical
T1 sequence (A1A185 with tags, fused parts or gaps): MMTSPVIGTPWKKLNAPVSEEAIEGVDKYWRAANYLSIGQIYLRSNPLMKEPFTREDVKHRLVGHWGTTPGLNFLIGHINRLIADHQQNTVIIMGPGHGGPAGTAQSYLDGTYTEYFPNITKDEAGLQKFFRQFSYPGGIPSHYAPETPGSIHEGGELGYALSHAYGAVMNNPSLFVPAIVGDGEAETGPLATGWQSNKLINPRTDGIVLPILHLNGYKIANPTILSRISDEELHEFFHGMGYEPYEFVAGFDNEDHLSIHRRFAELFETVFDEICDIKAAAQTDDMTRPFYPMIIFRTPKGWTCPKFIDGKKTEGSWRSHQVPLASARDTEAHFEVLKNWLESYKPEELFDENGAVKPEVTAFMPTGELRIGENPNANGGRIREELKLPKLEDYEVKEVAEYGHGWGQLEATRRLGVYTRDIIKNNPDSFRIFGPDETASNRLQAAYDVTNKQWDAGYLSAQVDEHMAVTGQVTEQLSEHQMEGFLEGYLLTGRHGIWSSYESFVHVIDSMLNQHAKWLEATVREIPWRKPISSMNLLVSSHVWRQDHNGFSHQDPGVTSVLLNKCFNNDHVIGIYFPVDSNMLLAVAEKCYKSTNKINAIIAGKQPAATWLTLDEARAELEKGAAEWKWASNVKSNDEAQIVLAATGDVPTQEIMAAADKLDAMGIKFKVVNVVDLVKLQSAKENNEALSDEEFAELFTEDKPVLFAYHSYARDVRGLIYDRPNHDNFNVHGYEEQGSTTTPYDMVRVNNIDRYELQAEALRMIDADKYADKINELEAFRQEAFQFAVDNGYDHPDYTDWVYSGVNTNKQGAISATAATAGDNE
Method: Further biochemical characterization of selected variants was conducted and the FPK activity of these variants were assessed. […] The FPK kinetics assay was based on the E4PDH based Colorimetric Assay described herein for the 12 hits and the two controls (SEQ ID NO: 1 and SEQ ID NO: 2).
The product of FPK is coupled to ferric-hydroxamate complex production via hydroxamate reactions of its product with hydroxylamine and ferric chloride. Ferric-hydroxamate complex production was measured by absorbance at 520 nm. This is an end-point assay.
Cell lysate preparation was the same described as above. One typical reaction contained 7.5 uL lysate and 67.5 μL reaction buffer. Reaction buffer contained 1 mM of NADH and 5 mM of F6P substrate for primary screening. 2 mM of F6P was used in secondary screening in reaction buffer 1. The reaction in a plate was incubated at room temperature for 30 minutes. After the 30-min incubation, 25 μL of 2 M hydroxylamine in Tris-HCl solution was added into one reaction to initiate the hydroxamate reaction. The reaction was incubated at room temperature for 10 minutes and then sent to the plate reader for absorption at 520 nm.

[2] = test system: Collinsella aerofaciens xylulose-5-phosphate/fructose-6-phosphate phosphoketolase (D3), wild type, SEQ ID NO: 2; assay: Kinetics, E4PDH based colorimetric assay for FPK activity (F6P); type: biochemical
Excerpt: Mutagenesis techniques were used to generate engineered phosphoketolases based on one of two template phosphoketolases (the fructose-6-phosphate phosphoketolase from Bifidobacterium adolescentis (strain ATCC 15703 DSM 20083 NCTC 11814 E194a) (“H2”; UniProtKB Accession No. A1A185_BIFAA; SEQ ID NOs: 1 and 3) orthe xylulose-5-phosphate/fructose-6-phosphate phosphoketolase from Collinsella aerofaciens (“D3”; UniProt KB Accession No. A0A174LGR4_9ACTN; SEQ ID NOs: 2 and 4)). Engineered phosphoketolase were generated using rational protein engineering. Structural homology models were constructed for H2 and D3. The substrate docking with Xu5P and F6P were also performed. In total, 2000 variants were designed. There are 1031 constructs designed based on H2, and 969 based on D3. 1999 constructs were received from DNA synthesis. […]
(§1) Further biochemical characterization of selected variants was conducted and the FPK activity of these variants were assessed. […] The kinetics parameters measured during biochemical characterization are summarized below in Table 5. […]
The product of FPK is coupled to NADH production via a one-step enzymatic reaction of its product with E4PDH. NADH production overtime was measured by absorbance at 340 nm. […]
5 μL of half diluted cell lysate was added into 45 μL of reaction buffer. […] The reaction was recorded for a 10-min kinetics reading at 340 nm at room temperature.

[3] = test system: Collinsella aerofaciens xylulose-5-phosphate/fructose-6-phosphate phosphoketolase (D3), wild type, SEQ ID NO: 2; assay: Kinetics, Hydroxymate based colorimetric assay for FPK activity (F6P); type: biochemical
Excerpt: Mutagenesis techniques were used to generate engineered phosphoketolases based on one of two template phosphoketolases (the fructose-6-phosphate phosphoketolase from Bifidobacterium adolescentis (strain ATCC 15703 DSM 20083 NCTC 11814 E194a) (“H2”; UniProtKB Accession No. A1A185_BIFAA; SEQ ID NOs: 1 and 3) orthe xylulose-5-phosphate/fructose-6-phosphate phosphoketolase from Collinsella aerofaciens (“D3”; UniProt KB Accession No. A0A174LGR4_9ACTN; SEQ ID NOs: 2 and 4)). Engineered phosphoketolase were generated using rational protein engineering. Structural homology models were constructed for H2 and D3. The substrate docking with Xu5P and F6P were also performed. In total, 2000 variants were designed. […]
as §1
The product of FPK is coupled to ferric-hydroxamate complex production via hydroxamate reactions of its product with hydroxylamine and ferric chloride. Ferric-hydroxamate complex production was measured by absorbance at 520 nm. […]
Cell lysate preparation was the same described as above. […] The reaction was incubated at room temperature for 10 minutes and then sent to the plate reader for absorption at 520 nm.

[4] = molecular target: T1, Bifidobacterium adolescentis fructose-6-phosphate phosphoketolase (H2), wild type, SEQ ID NO: 1; assay: Kinetics, E4PDH based colorimetric assay for FPK activity (F6P); type: biochemical
[5] = substrate: O=P(O)(O)OC[C@H]1OC(O)(CO)[C@@H](O)[C@@H]1O; assay: as above; type: biochemical, Bifidobacterium adolescentis; conditions: other: F6P
Excerpt: Mutagenesis techniques were used to generate engineered phosphoketolases based on one of two template phosphoketolases (the fructose-6-phosphate phosphoketolase from Bifidobacterium adolescentis (strain ATCC 15703 DSM 20083 NCTC 11814 E194a) (“H2”; UniProtKB Accession No. A1A185_BIFAA; SEQ ID NOs: 1 and 3) orthe xylulose-5-phosphate/fructose-6-phosphate phosphoketolase from Collinsella aerofaciens (“D3”; UniProt KB Accession No. A0A174LGR4_9ACTN; SEQ ID NOs: 2 and 4)). Engineered phosphoketolase were generated using rational protein engineering. Structural homology models were constructed for H2 and D3. The substrate docking with Xu5P and F6P were also performed. In total, 2000 variants were designed. There are 1031 constructs designed based on H2, and 969 based on D3. 1999 constructs were received from DNA synthesis. The variants were then tested for XPK and/or FPK activity in in vitro primary and secondary screens as described below.
Further biochemical characterization of selected variants was conducted and the FPK activity of these variants were assessed. 12 hits were selected from the secondary screening results of the phosphoketolase library screen for in vitro biochemical characterization. All 12 of the hits selected are variants based on SEQ ID NO: 1. The kinetics parameters measured during biochemical characterization are summarized below in Table 5. The FPK kinetics assay was based on the E4PDH based Colorimetric Assay described herein for the 12 hits and the two controls (SEQ ID NO: 1 and SEQ ID NO: 2).
The product of FPK is coupled to NADH production via a one-step enzymatic reaction of its product with E4PDH. NADH production overtime was measured by absorbance at 340 nm. The reactions are listed below.
5 μL of half diluted cell lysate was added into 45 μL of reaction buffer. The reaction buffer contained an approximate amount of E4PDH enzyme, 1 mM NADH and 5 mM F6P as substrate for primary screening. 2 mM F6P was used for secondary screening. The reaction was recorded for a 10-min kinetics reading at 340 nm at room temperature.

- Km [1]: 1.04 mM
- kcat [1]: 5.933 s⁻¹
- Km [2]: 27.9 mM
- kcat [2]: 7.824 s⁻¹
- Km [3]: 9.31 mM
- kcat [3]: 19.57 s⁻¹
- Km [4]: 4.89 mM
- kcat [4]: 30.07 s⁻¹
Molecule: O=P(O)(O)OC[C@H]1OC(O)(CO)[C@@H](O)[C@@H]1O (stereo partly drawn) [F6P, D-fructose-6-phosphate]

B1: Bifidobacterium adolescentis fructose-6-phosphate phosphoketolase (H2, SEQ ID NO: 1) variant S504A (Bifidobacterium adolescentis ATCC 15703; S503A) (protein)
chain: T1 sequence (A1A185 with tags, fused parts or gaps) with S504A
- Km [5]: 3.347 mM
- kcat [5]: 26.3 s⁻¹
- kcat/Km [5]: 7850 M⁻¹ s⁻¹

B2: Bifidobacterium adolescentis fructose-6-phosphate phosphoketolase (H2, SEQ ID NO: 1) variant Y799I (Bifidobacterium adolescentis ATCC 15703; Y798I) (protein)
chain: T1 sequence (A1A185 with tags, fused parts or gaps) with Y799I
- Km [5]: 4.53 mM
- kcat [5]: 33.6 s⁻¹
- kcat/Km [5]: 7430 M⁻¹ s⁻¹
